Several values for one entry are separate records, joined by “and”; a condition that tells them apart may be missing. Equal values may be shown once.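 Results reflect a 48-hour exposure of cells in 96-well plates to compound at five concentrations. GI50 marks 50% less growth. Definition used: TGI = concentration required for complete inhibition of growth.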
Experiments:
Test in all cases: growth of human tumour cells (NCI), 48 h
HOP-62 NSCLC = tested on: HOP-62 NSCLC
M14 melanoma = tested on: M14 melanoma
MCF7 breast = tested on: MCF7 breast
MDA-MB-435 = tested on: MDA-MB-435
NCI-H460 lung = tested on: NCI-H460 lung
PC-3 prostate = tested on: PC-3 prostate
SF-295 CNS = tested on: SF-295 CNS
SNB-19 CNS = tested on: SNB-19 CNS
UACC-257 melanoma = tested on: UACC-257 melanoma
UO-31 renal = tested on: UO-31 renal

Row | Compound | GI50 (HOP-62 NSCLC) | TGI (HOP-62 NSCLC) | GI50 (M14 melanoma) | TGI (M14 melanoma) | GI50 (MCF7 breast) | TGI (MCF7 breast) | GI50 (MDA-MB-435) | TGI (MDA-MB-435) | GI50 (NCI-H460 lung) | TGI (NCI-H460 lung) | GI50 (PC-3 prostate) | TGI (PC-3 prostate) | GI50 (SF-295 CNS) | TGI (SF-295 CNS) | GI50 (SNB-19 CNS) | TGI (SNB-19 CNS) | GI50 (UACC-257 melanoma) | TGI (UACC-257 melanoma) | GI50 (UO-31 renal) | TGI (UO-31 renal)
1 | O=C(NN1C(=O)CSC12CCCCC2)c1[nH]c2ccc(F)cc2c1-c1ccccc1 | 19.2 µM | 41.2 µM | 38.2 µM | > 100 µM | 19.4 µM | 37.3 µM | 21.8 µM | 52.9 µM | 26.6 µM | 77.7 µM | 18.8 µM | 35.9 µM | 22.2 µM | 40 µM | 19.8 µM | 44.2 µM | 23.3 µM | 56.9 µM | 27.8 µM | 80.9 µM
2 | Nc1ncnc2[nH]ncc12 | 2.23 µM | > 100 µM | 0.442 µM | 12.4 µM | 0.435 µM | > 100 µM | 0.58 µM | > 56 µM | 2.1 µM | > 100 µM | 0.526 µM | > 55.7 µM | 0.401 µM | 6.37 µM | 13.8 µM | > 100 µM | 0.983 µM | 14.2 µM | 0.232 µM | 0.916 µM
3 | COc1ccc(-c2n[nH]nc2-c2cc(OC)c3c(c2OC)OCO3)cc1 | 1.45 µM | > 66.1 µM | 0.433 µM | 19.5 µM | 0.48 µM | 35.2 µM | 0.227 µM | 0.761 µM | 0.409 µM | 15.9 µM | 1.87 µM | > 100 µM | 0.658 µM | 5.67 µM | 3.82 µM | > 100 µM | 2.8 µM | > 100 µM | 3.83 µM | 46.6 µM
4 | O=C(/C(=C/c1ccccc1)CN1CCCCC1)c1ccccc1 | 2.88 µM | 9.93 µM | 1.23 µM | 2.88 µM | 0.464 µM | 2.85 µM | 0.57 µM | 5.21 µM | 2.05 µM | 4.91 µM | 2.2 µM | 9.26 µM | 2.42 µM | 7.08 µM | 3.9 µM | 15.7 µM | 1.25 µM | 3.35 µM | 0.996 µM | 2.3 µM
5 | O=C(c1ccccc1)C(CN1CCOCC1)c1ccccc1 (stereo not given) | 6.5 µM | 19.7 µM | 1.66 µM | 3.57 µM | 1.25 µM | 2.66 µM | 1.35 µM | 3.36 µM | 2.51 µM | 7.76 µM | 2.93 µM | 13.3 µM | 2.67 µM | 10.4 µM | 3.76 µM | 15.6 µM | 1.37 µM | 3.13 µM | 1.41 µM | 3.02 µM
6 | O=S(=O)(NCCNC/C=C/c1ccc(Br)cc1)c1cccc2cnccc12 | 7.49 µM and 8.6 µM | 21.7 µM and 22.2 µM | 12.8 µM and 15.3 µM | 26.4 µM and 30.9 µM | 8.98 µM and 9.53 µM | 25.1 µM and 25.4 µM | 9.22 µM and 12.5 µM | 25.2 µM and 25.6 µM | 9.76 µM and 15.4 µM | 26.2 µM and 31.6 µM | 7.18 µM and 11.2 µM | 21.2 µM and 24.5 µM | 6.47 µM and 11.6 µM | 22.9 µM and 25.1 µM | 13.1 µM and 17.7 µM | 27 µM and 34.1 µM | 7.83 µM and 14.3 µM | 20.8 µM and 27.5 µM | 4.8 µM and 5.17 µM | 18.4 µM and 20.2 µM
7 | CN1CCN(Cc2ccc(NC(=O)c3cncc(C#Cc4cnc(N)c5ccncc45)c3)cc2C(F)(F)F)CC1 | 1.03 µM | > 16.6 µM | 0.141 µM | 0.547 µM | 1.93 µM | 8.92 µM | 0.218 µM | 4 µM | 0.374 µM | 5.81 µM | 1.77 µM | 9.18 µM | 2.16 µM | > 50 µM | 3.23 µM | 9.62 µM | 0.573 µM | 4.68 µM | 0.918 µM | 2.49 µM
8 | CN(C)CCCN1c2ccccc2CCc2ccc(Cl)cc21 | 10.8 µM | 23.3 µM | 1.83 µM | 3.35 µM | 1.76 µM | 3.66 µM | 2.35 µM | 6.91 µM | 4.46 µM | 19.1 µM | 2.98 µM | 15.4 µM | 3.51 µM | 14.8 µM | 6.42 µM | 21.5 µM | 1.84 µM | 3.41 µM | 5.17 µM | 19.7 µM
9 | Cc1ccc(C(=O)Nc2ccc(CN3CCN(C)CC3)c(C(F)(F)F)c2)cc1C#Cc1cnc2cccnn12 | 0.413 µM and 0.849 µM | 1.53 µM and 3.73 µM | 0.162 µM and 0.351 µM | 0.737 µM and 3.42 µM | 0.72 µM and 1.29 µM | 2.17 µM and 4.42 µM | 0.26 µM and 0.753 µM | 1.23 µM and 3.62 µM | 0.763 µM | 4.07 µM | 1.14 µM and 2.19 µM | 3.2 µM and 5.59 µM | 0.327 µM and 1.26 µM | 1.75 µM and 4.27 µM | 0.973 µM and 2.7 µM | 2.28 µM and 4.67 µM | 0.536 µM and 1.56 µM | 2.04 µM and 4.39 µM | 0.34 µM and 0.349 µM | 1.52 µM and 3.19 µM
10 | CN(C)c1ccc2c(c1)Sc1cc(N(C)C)ccc1N2C(=O)c1ccccc1 | 92.4 µM | > 100 µM | 75 µM | > 100 µM | 37 µM | > 100 µM | 65 µM | > 100 µM | 20.5 µM | > 100 µM | 12.9 µM | > 100 µM | 10.1 µM | > 100 µM | 34.2 µM | > 100 µM | > 100 µM | > 100 µM | 8.23 µM | > 100 µM
11 | O=C1C=C(Br)c2c(-c3ccccc3)oc3cccc1c23 |  | > 100 µM |  | 98.2 µM |  | > 100 µM |  | > 100 µM |  | > 100 µM |  | > 100 µM |  | > 100 µM |  | > 100 µM |  | > 100 µM |  | > 100 µM
12 | C=CC(=O)Nc1cccc(C)c1Nc1cc(-c2cccnc2Cc2c(C)c(OC)cc(OC)c2C)ncn1 | 19 µM | 75.7 µM | 22.5 µM | 97.5 µM | 5.27 µM | > 100 µM | 12.1 µM | 31.3 µM | 4.91 µM | 31.7 µM | 5.65 µM | > 100 µM | 6.47 µM | 73.9 µM | 7.04 µM | 43.1 µM | 23.7 µM | > 100 µM | 18.4 µM | > 100 µM

— PubChem BioAssay (NCI)
